Measured values reported in patent US5212188A, “Method for treatment of neurodegenerative diseases” (R. J. Reynolds Tabacco Company, priority 1992, dated 1993).

Assays:
[1] = biological target: high affinity nicotinic receptors; experiment: Inhibition of L-[3H]nicotine binding to mouse brain membrane preparations; set-up: species or system Mice (DBA strain); conditions: 10 nM L-[3H]nicotine, 2 hr at 4° C., mouse brain membranes, Ki calculated from IC50 by Cheng method
Description: Mice (DBA strain) were maintained on a 12 hour light/dark cycle and were allowed free access to water and food supplied by Wayne Lab Blox, Madison, WI. Animals used in the present studies were 60 to 90 days of age and weighed 20 to 25 g. Brain membrane preparations were obtained from pooled brain tissue of both males and females.
Mice were killed by cervical dislocation. Brains were removed and placed on an ice-cold platform. The cerebellum was removed and the remaining tissue was placed in 10 volumes (weight:volume) of ice-cold buffer (Krebs-RingersHEPES:NaCl, 118 mM; KCl, 4.8 mM; CaCl2, 2.5 mM; MgSO4, 1.2 mM; HEPES, 20 mM; pH to 7.5 with NaOH) and homogenized with a glass-Teflon tissue grinder. The resulting homogenate was centrifuged at 18000×g for 20 min. and the resulting pellet was resuspended in 20 volumes of water. […] Protein was determined by the method of Lowry, et al., J. Biol. Chem., Vol. 193, pp. 265-275 (1951), using bovine serum albumin as the standard.
The binding of L-[^3 H]nicotine was measured using a modification of the method of Romano, et al., Science, Vol. 210, pp. 647-650 (1980) as described previously by Marks, et al., Mol. Pharmacol., Vol. 30, pp. 427-436 (1986). The binding of L-[^3 H]nicotine was measured using a 2 hr. incubation at 4° C. […] Nonspecific binding was determined by inclusion of 10 μM nonradioactive nicotine in the incubations. […]

[2] = system: synaptosomes from the striatal area of rat brain; experiment: [3H]-dopamine release from striatal synaptosomes, continuous perfusion; format: cell-based, Sprague-Dawley rats; conditions: 0.2 ml of a 20 μM solution of ligand, relative to equal concentration of S(-) nicotine, read-out: Dopamine Release (percent release relative to S(-) nicotine)
Description: Dopamine release was measured by preparing synaptosomes from the striatal area of rat brain obtained from Sprague-Dawley rats generally according to the procedures set forth by Nagy, et al., J. Neurochem., Vol. 43, pp. 1114-1123 (1984). Striata from 4 rats were homogenized in 2 ml of 0.32M sucrose buffered with 5 mM HEPES (pH 7.5), using a glass-teflon tissue grinder. The homogenate was diluted to 5 ml with additional homogenization solution and centrifuged at 1000×g for 10 min. This procedure was repeated on the new pellet and the resulting supernatant was centrifuged at 12,000×g for 20 min. […] Using this method, 30 to 90 percent of the dopamine was taken up into the synaptosomes, as determined by scintillation counting following filtration through glass fiber filters soaked with 0.5 percent polyethyleneimine. […] After the addition of a 0.2 ml of a 20 μM solution of ligand, the perfusate was collected into scintillation vials at 1 min. intervals and the dopamine released was quantified by scintillation counting. Peaks of radioactivity released above background were summed and the average basal release during that time was subtracted from the total. Release was expressed as a percentage of release obtained with an equal concentration of S(-) nicotine.

## CNCC/C=C/c1cccnc1 [trans-meta-nicotine]
[1]
  Ki: 21 ± 5 nM
[2]
  Emax: 70%
